Test results reported in PMC4912613, “A broad analysis of resistance development in the malaria parasite” (Nature Communications, 2016).
Where two headings read alike, the source gives them in different places.

How the values were obtained:
[1] = test system: DHODH (E182D, parent 3D7); assay: Cross-resistance EC50 assay, DHODH; format: cell-based; conditions: Plasmodium falciparum, SYBR green 72 hour assay, synchronized parasites, 384-well format
Excerpt: (§1) To evaluate potential overlapping activity against known antimalarial drug targets, we performed dose-response studies with each compound against our assembled set of drug-resistant lines and their corresponding parents, in an asexual blood stage proliferation assay (Table 1). Comparisons were made to the drug-sensitive strain 3D7 when a parent was unavailable (TM90C2A, W2 and Dd2). As laboratories conducted EC50 assays with different strains and protocols, all comparisons were made between assays from the same laboratory and under the same assay conditions. Compounds displaying >5-fold EC50 shifts relative to the parent or sensitive strain were flagged as having potentially non-novel targets. Average fold shifts per strain ranged from 0.82 to 2.34, with a median of 1.23 indicating there was not common resistance to any one resistant clone. No resistance patterns were observed when classifying the compounds based on chemical structure, but this was not surprising given the diversity of compounds chosen. On the other hand, given that these confirmed compounds were derived from larger unconfirmed hit lists to which some filtration criteria may have been applied (for example, elimination of obvious dihydrofolate reductase inhibitors[32]), some[10][11][12][13] pre-existing bias may exist in the set. […]
(§2) Alternatively, a SYBR Green-based proliferation approach was used for the 72-h assay, as previously described. Briefly, a culture of either synchronized or asynchronous parasitized RBCs (0.3% parasitemia and 4% haematocrit) in screening medium (identical to supplemented medium above except no serum was added) was exposed to serial drug dilutions. Plates were incubated at 37 °C and gassed with 93% N2, 4% CO2 and 3% O2 for 72 h. Following incubation, 10 × SYBR Green I (Invitrogen; supplied in 10,000 × concentration) in lysis buffer ([…], 5 mM EDTA, 0.16% Saponin wt per vol and 1.6% Triton X vol per vol) was added to the wells and the plates were incubated overnight at room temperature before plate reading. EC50 assays were repeated three times, taking the average EC50 value from each assay set, and removing any outliers using a single iteration of Grubbs' test, eliminating values with z-scores above the critical z-value (α=0.05). The raw EC50 values for synchronized parasites assayed in a 384-well format are listed in Supplementary Data 4. The raw EC50 values for asynchronous parasites assayed in a 96 or 1536-well format are listed in Supplementary Data 5.
(§3) EC50 values for each strain were compared with those of the corresponding parent strain to determine fold-shift changes and identify resistance. To minimize the cause variance between assays, all comparisons were conducted between strains assayed under identical conditions. A one-way ANOVA followed by a Dunnet's post-test was conducted in GraphPad Prism to identify significant changes between the parent and resistant strain.

[2] = test system: ATQ-R4 (cytb M133I and L144S, parent 3D7); assay: Cross-resistance EC50 assay, ATQ-R4; format: cell-based, Plasmodium falciparum; conditions: for EC50: Plasmodium falciparum, 3D7, SYBR green 72 hour assay, asynchronized parasites, 96-well or 1536-well format, ATQ-R4; for EC50 fold-shift, ATQ-R4 vs parent: resistance, parent 3D7
Excerpt: as §1, §2, §3

[3] = test system: CYTb-G131S (cytb G131S, parent Dd2); assay: Cross-resistance EC50 assay, CYTb-G131S; format: cell-based, Plasmodium falciparum; conditions: for EC50: Plasmodium falciparum, SYBR green 72 hour assay, synchronized parasites, 384-well format
Excerpt: as §1, §2, §3

P. falciparum = assay: Rate of killing (parasite viability) assay; format: cell-based, Plasmodium falciparum; conditions: profile compared with chloroquine, pyrimethamine, atovaquone; 48 h treatment
Protocol: To identify whether selection success could be predicted by compound speed of action, and to gain a greater insight into the potential mechanisms of action, assays were performed to test the killing rate (Supplementary Data 1)[33]. To quantify the killing rate, viability time-course profiles for each compound were compared with antimalarials known to have fast (chloroquine), moderate (pyrimethamine) or slow (atovaquone) rate of action. These rates were then compared with other compound characteristics, including cross-resistance profile, selection success, potency and structural characteristics to identify any possible trends. […] One compound's rate of killing, MMV666080, was unidentifiable due to compound availability. No correlation was seen between compound structure and speed of action. Additionally, there was no correlation found between killing rate and compound potency against 3D7, nor between potency and selection success (Supplementary Fig. 2).
Rate of killing was determined for each compound following a previously described methodology, which uses the invasion of fresh erythrocytes as surrogate of parasite viability. Briefly, parasites were treated with compounds for 48 h. Compound was washed out and fresh-labelled erythrocytes added to the treated parasites. Double stained erythrocytes (RBC label plus parasite DNA label) were quantified and per cent of survival determined.

[4] = test system: P. berghei exoerythrocytic forms; assay: Liver-stage P. berghei hepatocyte invasion and development assay (luminescence, HepG2); format: cell-based, Plasmodium berghei; conditions: for EC50 fold shift compared to asexual stage: Liver Stage EC50: liver stage EC50 / 3D7 EC50
Excerpt: As drugs that eliminate multiple stages of the parasite lifecycle will be critical components in global efforts to eliminate malaria, we were interested in knowing whether the compounds in our study had additional activities against either the liver and/or transmission stages of the parasite lifecycle. To determine this, we first evaluated the compounds in additional phenotypic assays. The first assay was a P. berghei hepatocyte invasion and development assay, which predicts causal prophylactic activity. Hepatocyte toxicity was additionally tested to identify false-positive activity in the liver stage due to host-cell toxicity. Assays were executed in duplicate using a 12-point EC50 curve at starting concentrations of 5 μM or 50 μM (Supplementary Table 1).
Liver-stage activity was determined by pretreating hepatic human cells (HepG2) for 2 h with compound in 1,536-well plates infected with freshly dissected P. berghei sporozoites. After 48 h of incubation, the viability of P. berghei exoerythrocytic forms was measured by luminescence reaction light output using BrightGlo (Promega). Varying levels of compound concentration were used (5 μM or 50 μM) due to the stock concentration supplied.

[5] = Plasmodium berghei, HepG2, 48 h, P. berghei sporozoites, HepG2, 48 h, read-out: Liver Stage EC50

Row | SMILES | EC50 ([1]; strain DHODH (3D7 parent)) [nM] | EC50 [2] [µM] | EC50 ([3]; strain CYTb:G131S (Dd2 parent)) [nM] | Killing Rate (P. falciparum) | EC50 [4, 5] [nM] | EC50 fold shift compared to asexual stage: Liver Stage EC50 [4] | EC50 ([4]; Plasmodium berghei, HepG2, text values, read-out: Liver stage EC50 (PfLuc EC50)) [nM] | EC50 fold-shift, ATQ-R4 vs parent [2] | fold change in EC50, CYTb-G131S vs parent ([3]; resistance, parent Dd2) [fold] | EC50 ([4]; Plasmodium berghei, HepG2, 48 h, read-out: Liver Stage EC50) [nM] | EC50 ([1]; 3D7, DHODH strain) [nM] | EC50 ([3]; DD2, CYTb:G131S strain) [nM] | EC50 ([4]; P. berghei sporozoites, HepG2, 48 h, read-out: Liver Stage EC50) [nM]
1 | COC(=O)c1ccc(C2C3=C(O)CC(c4ccc(F)cc4)CC3=Nc3ccccc3N2C(=O)c2ccccc2)cc1 (stereo not shown) [MMV011438] | 556 | 0.379 | 336 | ATQ (slow) | 621 | 1.44 | – | – | – | – | – | – | –
2 | CCN(CC)CCn1c(=N)n(CC(O)c2ccc(Cl)c(Cl)c2)c2ccccc21.Cl (stereo not shown) [MMV000248] | 315 | 0.177 | 367 | CQ (fast) | 5550 | 18.14 | – | – | – | – | – | – | –
3 | c1cc(-c2cnc3ccc(-c4ccc(N5CCOCC5)cc4)nn23)ccn1 [MMV668311] | 42 | 0.029 | 63 | CQ (fast) | 2250 | 46.90 | – | – | – | – | – | – | –
4 | Brc1ccc(Nc2nc3ccccc3nc2Nc2ccc(Br)cc2)cc1 [MMV007224] | 606 | 0.766 | 285 | ATQ (slow) | 514 | 2.32 | – | – | – | – | – | – | –
5 | CN(C)S(=O)(=O)c1cc(-c2ccc3nccc(-c4cccc(S(N)(=O)=O)c4)c3c2)cnc1N [MMV024038] | 216 | 1.16 | 249 | PYR/CQ (moderate) | 10.8 | 0.05 | 10 | – | – | – | – | – | –
6 | COc1cc2cc(C(=O)Nc3ccccc3)c(N)nc2cc1OC [MMV006767] | 519 | 2.73 | 1800 | PYR (moderate) | > 50000 | – | – | – | – | – | – | – | –
7 | Nc1ncc(-c2cn[nH]c2)cc1-c1nc2ccc(F)cc2[nH]1 [MMV023367] | 414 | 1.67 | 710 | CQ (fast) | 611 | 2.02 | – | – | – | – | – | – | –
8 | CCN(CC)S(=O)(=O)c1ccc(-c2csc(Nc3ccc(C)c(C)c3)n2)cc1 [MMV009108] | 973 | 2.44 | 494 | ATQ (slow) | 4790 | 5.15 | – | – | – | – | – | – | –
9 | CN1CCN(c2ccc(Nc3c4ccccc4nc4ccccc34)cc2)CC1 [MMV006172] | 50 | 0.217 | 171 | CQ (fast) | 2060 | – | – | – | – | – | – | – | –
10 | Cc1c(C)n(Cc2ccc(F)cc2)c2ccc(C(=O)NCc3ccco3)cc12 [MMV008149] | 401 | 3.88 | > 5000 | ATQ (slow) | 882 | 1.15 | – | Statistically significant resistance | > 38 | – | – | – | –
11 | CC(C)c1cccc(C(NC(=O)C2Cc3ccccc3CN2C(=O)c2cccc(N3CCOCC3)c2)C2CCCC2)c1 (stereo not shown) [MMV028038] | 1270 | 1.01 | 461 | ATQ (slow) | 5360 | 9.92 | – | – | – | – | – | – | –
12 | COc1ccc(C(=O)C2CC2c2ccc(Cl)cc2)cc1 (stereo not shown) [MMV665924] | 927 | 3.41 | 1910 | CQ (fast) | > 5000 | > 6 | – | – | – | – | – | – | –
13 | O=C(Nc1ccc(Cl)c(Cl)c1)Nc1ccc(Cl)c(Cl)c1 [MMV665852] | 1770 | 2.89 | 1120 | CQ (fast) | 343 | – | – | – | – | – | – | – | –
14 | Cl.c1ccc2c(NCCCCCCNc3c4c(nc5ccccc35)CCCC4)c3c(nc2c1)CCCC3 [MMV019555] | 56 | 0.08 | 237 | CQ (fast) | – | – | – | – | – | 319 | – | – | –
15 | COc1ccc(NC(=O)N2CCCCN3[C@H](CN)[C@H](c4ccc(C#Cc5ccccc5)cc4)[C@@H]3C2)cc1 [BRD1095] | – | 0.003 | – | PYR/CQ (moderate) | 82.6 | 2.07 | – | – | – | – | 23 | 24 | –
16 | Cc1ccc(S(=O)(=O)n2cc(-c3ccnc(N)c3)c3cc(Br)cnc32)cc1 [MMV024114] | 395 | 1.99 | 1680 | PYR/CQ (moderate) | 5940 | 22.40 | – | – | – | – | – | – | –
17 | CNCc1ccc2nc(-c3coc(Cc4cc(Cl)ccc4OCC(C)C)n3)[nH]c2c1.Cl.Cl [MMV026596] | 392 | 0.303 | 443 | PYR (moderate) | 6470 | 18.71 | – | – | – | – | – | – | –
18 | Cc1cc(Nc2ccc(OCc3ccccc3)cc2)nc2cc(O)ccc12 [MMV007181] | 206 | 0.109 | 245 | PYR/CQ (moderate) | 4790 | 13.83 | – | – | – | – | – | – | –
19 | OC(CNC1CCCCC1)Cn1c2ccccc2c2ccccc21 (stereo not shown) [MMV009063] | 715 | 0.668 | 412 | CQ (fast) | > 5000 | > 6.3 | – | – | – | – | – | – | –
20 | CN(C)CCCNCc1ccc(-c2ccc(Cl)c(Cl)c2)o1 [MMV673964] | – | 0.163 | – | CQ (fast) | 8990 | 14.81 | – | – | – | – | 337 | 363 | –
21 | COc1ccccc1CNC(=O)CCn1c(=O)[nH]c2ccsc2c1=O [MMV019066] | 53 | 0.057 | 149 | ATQ (slow) | 318 | 0.19 | – | 16 × | – | – | – | – | 310
22 | CC(C)(C)OC(=O)N1CCN(c2ccccc2NC(=O)c2cccc(C(F)(F)F)c2Oc2ccc(F)cc2)CC1 [MMV030666] | 392 | 0.448 | 389 | PYR (moderate) | 613 | 1.26 | – | – | – | – | – | – | –
